Measured values as given in ChEMBL document CHEMBL1148772, “Inhibition of Mycobacterium tuberculosis, Mycobacterium bovis, and Mycobacterium avium by novel dideoxy nucleosides” (J Med Chem, 2007).
Values after ≈ are worked out from the molar mass of the structure shown.

Assays:
[1] = tested on: Mycobacterium tuberculosis; assay: Antimycobacterial activity against Mycobacterium tuberculosis H37Ra by microplate alamar blue assay; type: functional
[2] = tested on: Mycobacterium tuberculosis; assay: Antimycobacterial activity against Mycobacterium tuberculosis H37Ra at 50 uM by microplate alamar blue assay; type: functional
[3] = tested on: Mycobacterium avium; assay: Antimycobacterial activity against Mycobacterium avium ATCC 25291 at 100 uM by microplate alamar blue assay; type: functional
[4] = tested on: Mycobacterium tuberculosis; assay: Antimycobacterial activity against Mycobacterium tuberculosis H37Ra at 100 uM by microplate alamar blue assay; type: functional
[5] = tested on: Mycobacterium tuberculosis; assay: Antimycobacterial activity against Mycobacterium tuberculosis H37Ra at 10 uM by microplate alamar blue assay; type: functional
[6] = tested on: Mycobacterium avium; assay: Antimycobacterial activity against Mycobacterium avium ATCC 25291 by microplate alamar blue assay; type: functional
[7] = tested on: Mycobacterium avium; assay: Antimycobacterial activity against Mycobacterium avium ATCC 25291 at 2 uM by microplate alamar blue assay; type: functional
[8] = tested on: Mycobacterium tuberculosis; assay: Antimycobacterial activity against Mycobacterium tuberculosis H37Ra at 1 uM by microplate alamar blue assay; type: functional
[9] = tested on: Mycobacterium avium; assay: Antimycobacterial activity against Mycobacterium avium ATCC 25291 at 50 uM by microplate alamar blue assay; type: functional
[10] = Cytotoxicity against human foreskin fibroblast cells by MTT assay; type: cell-based
[11] = Cytotoxicity against Vero cells by MTT assay; type: cell-based; settings: African green monkey
[12] = tested on: Mycobacterium avium; assay: Antimycobacterial activity against Mycobacterium avium ATCC 25291 at 10 uM by microplate alamar blue assay; type: functional
[13] = tested on: Streptococcus pyogenes; assay: Antibacterial activity against Streptococcus pyogenes ATCC 19615; type: functional
[14] = tested on: Streptococcus pneumoniae; assay: Antibacterial activity against Streptococcus pneumoniae ATCC 49619; type: functional
[15] = tested on: Bacillus subtilis; assay: Antibacterial activity against Bacillus subtilis ATCC 6633; type: functional

Compound	MIC90 [1]	inhibition at 50 µM [2]	inhibition at 100 µM [3]	inhibition at 100 µM [4]	inhibition at 10 µM [5]	other results
CCCc1ccc(C#Cc2cn([C@H]3C[C@H](F)[C@@H](CO)O3)c(=O)[nH]c2=O)cc1	50 µg/mL (≈ 134 µM)	100%	25%	100%	50%	–
O=c1[nH]c(=O)n([C@H]2CC[C@@H](CO)O2)cc1Br	–	–	0%	0%	–	–
CC[C@H]1OC(=O)[C@H](C)[C@@H](O[C@H]2C[C@@](C)(OC)[C@@H](O)[C@H](C)O2)[C@H](C)[C@@H](O[C@@H]2O[C@H](C)C[C@H](N(C)C)[C@H]2O)[C@](C)(OC)C[C@@H](C)C(=O)[C@H](C)[C@@H](O)[C@]1(C)O [CLARITHROMYCIN]	–	–	–	–	–	MIC90 [6]: 2 µg/mL (≈ 2.67 µM); inhibition at 2 µM [7]: 95%
CCCCCCCCCCCCC#Cc1cn([C@H]2CC[C@@H](CO)O2)c(=O)[nH]c1=O	10 µg/mL (≈ 24.7 µM)	100%	100%	100%	50%	inhibition at 1 µM [8]: 25%; inhibition at 50 µM [9]: 50%; CC50 [10]: > 100 µg/mL; MIC90 [6]: 50 µg/mL (≈ 124 µM); CC50 [11]: > 100 µg/mL
CCCC#Cc1cn([C@H]2CC[C@@H](CO)O2)c(=O)[nH]c1=O	–	–	0%	50%	–	–
CC(=O)OC[C@@H]1CC[C@H](n2cc(Cl)c(=O)[nH]c2=O)O1	–	–	0%	0%	–	–
CCCCCC#Cc1cn([C@H]2C[C@H](F)[C@@H](CO)O2)c(=O)[nH]c1=O	–	–	0%	50%	–	–
CC(=O)OC[C@@H]1CC[C@H](n2ccc(=O)[nH]c2=O)O1	–	–	0%	0%	–	–
O=c1[nH]c(=O)n([C@H]2CC[C@@H](CO)O2)cc1C#Cc1ccccc1	–	25%	25%	25%	–	inhibition at 50 µM [9]: 25%; inhibition at 10 µM [12]: 25%
CCCCCCCCC#Cc1cn([C@H]2CC[C@@H](CO)O2)c(=O)[nH]c1=O	1 µg/mL (≈ 2.87 µM)	100%	90%	100%	100%	MIC [13]: 100 µg/mL (≈ 287 µM); inhibition at 1 µM [8]: 50%; inhibition at 50 µM [9]: 25%; MIC [14]: 100 µg/mL (≈ 287 µM); CC50 [10]: > 100 µg/mL; inhibition at 10 µM [12]: 25%; MIC [15]: 100 µg/mL (≈ 287 µM); MIC90 [6]: 100 µg/mL (≈ 287 µM); CC50 [11]: > 100 µg/mL
CCCCCCCCCCC#Cc1cn([C@H]2C[C@H](F)[C@@H](CO)O2)c(=O)[nH]c1=O	10 µg/mL (≈ 25.3 µM)	100%	90%	100%	50%	inhibition at 50 µM [9]: 40%; CC50 [10]: > 100 µg/mL; MIC90 [6]: 100 µg/mL (≈ 253 µM); CC50 [11]: > 100 µg/mL
N#Cc1cn(C2CCC(CO)O2)c2ncnc(N)c12 (stereo not drawn)	–	40%	0%	50%	–	–
Nc1nc(O)c2ncn([C@H]3CC[C@@H](CO)O3)c2n1	–	–	0%	0%	–	–
O=c1[nH]c(=O)n([C@H]2CC[C@@H](CO)O2)cc1Cl	–	–	0%	0%	–	–
Nc1ccn([C@@H]2CS[C@H](CO)O2)c(=O)n1 [LAMIVUDINE]	–	–	0%	0%	–	–
Nc1nc(F)c2ccn([C@H]3CC[C@@H](CO)O3)c2n1	–	40%	100%	50%	25%	inhibition at 50 µM [9]: 100%; inhibition at 10 µM [12]: 35%; MIC90 [6]: 10 µg/mL (≈ 39.6 µM)
CCCCCCCCC#Cc1cn([C@H]2C[C@H](F)[C@@H](CO)O2)c(=O)[nH]c1=O	10 µg/mL (≈ 27.3 µM)	100%	50%	100%	25%	CC50 [10]: > 100 µg/mL; CC50 [11]: > 100 µg/mL

Compound	MIC90 [1]	inhibition at 50 µM [2]	inhibition at 100 µM [3]	inhibition at 100 µM [4]	inhibition at 10 µM [5]	other results
Nc1ccn([C@H]2CC[C@@H](CO)O2)c(=O)n1 [ZALCITABINE]	–	–	0%	0%	–	–
Nc1nc(N)c2ncn([C@H]3CC[C@@H](CO)O3)c2n1	–	–	0%	25%	–	–
Nc1nc(=O)n([C@H]2CC[C@@H](CO)O2)cc1Br	–	–	0%	–	50%	–
Nc1nc(=O)n([C@H]2CC[C@@H](CO)O2)cc1I	–	–	0%	0%	–	–
CCSc1nc(N)nc2c1ncn2[C@H]1CC[C@@H](CO)O1	10 µg/mL (≈ 33.9 µM)	100%	25%	100%	35%	inhibition at 50 µM [9]: 25%
Nc1ncnc2c1ncn2[C@H]1CC[C@@H](CO)O1	–	–	0%	0%	–	–
CO[C@H]1/C=C/O[C@@]2(C)Oc3c(C)c(O)c4c(O)c(c(/C=N/N5CCN(C)CC5)c(O)c4c3C2=O)NC(=O)/C(C)=C\C=C\[C@H](C)[C@H](O)[C@@H](C)[C@@H](O)[C@@H](C)[C@H](OC(C)=O)[C@@H]1C [RIFAMPIN]	0.5 µg/mL (≈ 0.608 µM)	–	–	–	–	MIC90 [6]: 2 µg/mL (≈ 2.43 µM); inhibition at 2 µM [7]: 90%
CCCCCCCCCCCCC#Cc1cn(C2CC(F)C(CO)O2)c(=O)[nH]c1=O (stereo not drawn)	1 µg/mL (≈ 2.37 µM)	100%	90%	100%	100%	inhibition at 1 µM [8]: 80%; CC50 [10]: > 100 µg/mL; MIC90 [6]: 100 µg/mL (≈ 237 µM); CC50 [11]: > 100 µg/mL
CC(=O)OC[C@@H]1CC[C@H](n2cc(Cl)c(=S)[nH]c2=O)O1	50 µg/mL (≈ 164 µM)	60%	0%	100%	–	–
O=c1[nH]c(=S)c(Cl)cn1[C@H]1CC[C@@H](CO)O1	50 µg/mL (≈ 190 µM)	50%	0%	100%	–	–
CCCCCCCCCCCC#Cc1cn([C@H]2C[C@H](F)[C@@H](CO)O2)c(=O)[nH]c1=O	10 µg/mL (≈ 24.5 µM)	100%	25%	100%	60%	CC50 [10]: > 100 µg/mL; CC50 [11]: > 100 µg/mL
Cc1cn([C@H]2CC[C@@H](CO)O2)c(=O)nc1N	–	50%	0%	50%	50%	–
CCCCCCCCCCCC#Cc1cn([C@H]2CC[C@@H](CO)O2)c(=O)[nH]c1=O	10 µg/mL (≈ 25.6 µM)	100%	100%	100%	50%	inhibition at 1 µM [8]: 50%; inhibition at 50 µM [9]: 100%; CC50 [10]: > 100 µg/mL; inhibition at 10 µM [12]: 80%; MIC90 [6]: 10 µg/mL (≈ 25.6 µM); CC50 [11]: > 100 µg/mL
CCCCCCCCCC#Cc1cn([C@H]2CC[C@@H](CO)O2)c(=O)[nH]c1=O	1 µg/mL (≈ 2.76 µM)	100%	100%	100%	100%	inhibition at 1 µM [8]: 80%; inhibition at 50 µM [9]: 100%; CC50 [10]: > 100 µg/mL; inhibition at 10 µM [12]: 50%; MIC [15]: 100 µg/mL (≈ 276 µM); MIC90 [6]: 10 µg/mL (≈ 27.6 µM); CC50 [11]: > 100 µg/mL
NC(=O)c1cn([C@H]2CC[C@@H](CO)O2)c2ncnc(N)c12	–	–	0%	0%	–	–
COc1nc(N)nc2c1ncn2[C@H]1CC[C@@H](CO)O1 [METACAVIR]	–	–	20%	0%	–	inhibition at 50 µM [9]: 20%
